# According to US4125605A, “Method of employing oral TRH” (The United States Government, priority 1977, dated 1978):
# What was measured:
# [1] = test system: nursing women between the 5th and 35 postpartum days; assay type: in vivo, human; details: 5 mg TRH oral single dose
# Method: To test the efficacy of TRH, six nursing women between the 5th and 35 postpartum days were studied. Each received one 5 mg capsule of TRH in the early morning after an overnight fast. Six nursing women matched for postpartum interval received a placebo of lactose sugar. Blood samples were drawn from an indwelling catheter in an antecubital vein at -5,0,30,60,120, and 180 min.
# A set of specific radioimmunoassays were employed for the measurement of plasma hormones. PRL was measured by a modification of the radioimmunoassay of Hwang et al., Proc. Nat. Acad. Sci., 68:1902 (1971) using the iodination technique of Greenwood et al., Biochem J., 89:114 (1963). Plasma LH and FSH were measured by using a modification of the double antibody radioimmunoassay of Midgely, Endocrinology, 79:10 (1966). Thyrotropin (TSH) was determined by a double antibody radioimmunoassay of Odell, Rayford and Ross, J. Lab. Clin. Med., 70:973 (1967). Plasma thyroxine (T4) by column was measured by the method of Pileggi and Kessler, Clin. Chem., 14:339 (1968). A modification of the immunoassay of Roth et al., Science, 140:987 (1963), was used to measure plasma growth hormone (GH) utilizing the iodination technique for prolactin. Antibody bound radioactivity was separated by the dextran-charcoal method of Herbert et al., J. Clin. Endocrinol. Metab., 25:1375 (1965). […]
# [2] = test system: women practicing full nursing; assay type: in vivo, human
# Method: (§1) Sixty women volunteered for this major study and each was instructed to practice full nursing for at least 90 postpartum days. Fifty percent of the women were dropped from the study before the end of the first postpartum month due to changes in nursing patterns. The remaining 30 women were randomly divided into TRH and control groups. TRH, 5 mg or a lactose placebo, was administered daily at 0800 and 2000 h for 30 days beginning on day 29 postpartum. Blood and milk samples were obtained on the first postpartum day and at weekly intervals between 1500 and 1600 h. Thus, blood samples were never obtained sooner than 7 h after the ingestion of TRH. Each women's nursing pattern was recorded by nurse-midwives. Charts of infant growth and development were plotted weekly.
# (§2) With regard to sampling procedures, individual blood samples were collected in heparinized vacuum tubes. Neither nursing nor maternal food intake had occurred in the previous 3 h. The sampling procedure in Examples II and III consisted of placing the patient at rest for a minimum of 15 min after which blood was drawn from an antecubital vein. Blood samples were centrifuged and plasma was removed and stored at -20C. Samples originating outside the continental United States were delivered to the laboratory at quarterly intervals in dry ice by special messenger.
# (§3) In Examples II and III, milk was obtained from each breast following blood sampling and immediately prior to nursing. The women were instructed to grasp first the right and then the left breast, kneading it gently toward the nipple. Thus, 10 ml or more of the fore milk was removed with ease through each nipple and combined in a sterile container. The sample was thoroughly mixed by vigorous shaking. A compressed tablet of mercuric chloride and potassium dichromate was then added as a preservative to each sample before storing.
# (§4) A set of specific radioimmunoassays were employed for the measurement of plasma hormones. PRL was measured by a modification of the radioimmunoassay of Hwang et al., Proc. Nat. Acad. Sci., 68:1902 (1971) using the iodination technique of Greenwood et al., Biochem J., 89:114 (1963). Plasma LH and FSH were measured by using a modification of the double antibody radioimmunoassay of Midgely, Endocrinology, 79:10 (1966). Thyrotropin (TSH) was determined by a double antibody radioimmunoassay of Odell, Rayford and Ross, J. Lab. Clin. Med., 70:973 (1967). Plasma thyroxine (T4) by column was measured by the method of Pileggi and Kessler, Clin. Chem., 14:339 (1968). A modification of the immunoassay of Roth et al., Science, 140:987 (1963), was used to measure plasma growth hormone (GH) utilizing the iodination technique for prolactin. Antibody bound radioactivity was separated by the dextran-charcoal method of Herbert et al., J. Clin. Endocrinol. Metab., 25:1375 (1965). Each of the references mentioned in this paragraph is incorporated herein by reference.
# For the analysis of milk composition, samples were thawed and held at room temperature for no more than 30 min. Aliquots were analyzed for percent fat, protein and lactose concentrations using the infrared milk analyzer (IRMA). Samples less than 30 ml in volume (about 10% of the total) were diluted up to 35 ml with distilled water. These were then homogenized with a Biosonic Model 3 Ultrasonicater (Bronwill Scientific Co., Rochester, N.Y.) at an exposed intensity of 70 vibrations per second for 30 sec. These samples were stored overnight at 4° C. and then analyzed for composition. […]
# [3] = test system: infants of TRH-treated mothers; set-up: species or system human; details: in vivo, po
# Method: as §1, with “Charts of infant growth and development were plotted weekly.” left out
# A set of specific radioimmunoassays were employed for the measurement of plasma hormones. PRL was measured by a modification of the radioimmunoassay of Hwang et al., Proc. Nat. […] Plasma LH and FSH were measured by using a modification of the double antibody radioimmunoassay of Midgely, Endocrinology, 79:10 (1966). Thyrotropin (TSH) was determined by a double antibody radioimmunoassay of Odell, Rayford and Ross, J. Lab. […] Plasma thyroxine (T4) by column was measured by the method of Pileggi and Kessler, Clin. Chem., 14:339 (1968). […] Antibody bound radioactivity was separated by the dextran-charcoal method of Herbert et al., J. Clin. Endocrinol. […]
# [4] = test system: women with lactational insufficiency practicing partial nursing; assay: Example III: oral TRH 5 mg or 20 mg twice a day for 5 days in women with lactational insufficiency; assay type: in vivo, human
# Method: A group of 13 women with lactational insufficiency practicing partial nursing between 13-71 postpartum days were next studied. Four received TRH 5 mg and nine received 20 mg twice a day at 0800 and 2000 h for 5 days. Blood samples were obtained prior to the first capsule and daily thereafter for 5 days before taking the morning dose of TRH. Daily milk samples were also collected.
# as §2, §3, §4
# For the analysis of milk composition, samples were thawed and held at room temperature for no more than 30 min. Aliquots were analyzed for percent fat, protein and lactose concentrations using the infrared milk analyzer (IRMA). Samples less than 30 ml in volume (about 10% of the total) were diluted up to 35 ml with distilled water. These were then homogenized with a Biosonic Model 3 Ultrasonicater (Bronwill Scientific Co., Rochester, N.Y.) at an exposed intensity of 70 vibrations per second for 30 sec. These samples were stored overnight at 4° C. and then analyzed for composition. Corrections were made for any dilution.
# [5] = test system: women with insufficient lactation; set-up: species or system human; details: in vivo
# Method: as §4
# As an experimental exercise, two women with insufficient lactation gave consent for the administration of 40 mg of oral TRH twice a day or the same time schedule as noted above. On the 7th day of therapy the patients were reevaluated and found to have lost weight. Their pulse rate was elevated as was their blood pressure. […]
# surrogate mothers = assay: Induction of lactation in surrogate (adoptive) mothers with conjugated estrogens plus oral TRH; assay type: in vivo, human
# Source text: An additional use of TRH is in surrogate mothers. Studies in accordance with the present invention have involved the administration of TRH to adoptive mothers. In most instances, such women have undergone voluntary sterilization following the birth of natural children but, for one reason or another, wish to have another child. By the present invention, lactation has been induced in such women for the benefit of their adopted child by attempting to simulate the effects of pregnancy on prolactin secretion and, at the same time, by requesting that the […] practice auto-stimulation of the nipple. The technique of stimulation is as follows: Women are treated with 5 to 10 mg of conjugated estrogens equine twice a day for 14 days. Caution with regard to the possibility of side effects is given to each woman based upon the known effects of such estrogens on the vascular system. Beginning on the 7th day of estrogen treatment, oral TRH 5-10 mg twice a day, at intervals of about 12 hours, is administered for the final 7 days of treatment with estrogen. At the end of the 14th estrogen-treatment day, TRH is continued while the frequency of nipple stimulation is increased from four times daily to every 4 hours. In the women studied thus far, milk production can be induced within 72 hours following the withdrawal of the estrogen. […]
# [6] = test system: puerperally lactating mothers; assay: Reestablishment of lactation in puerperally lactating mothers after emergency surgery; assay type: in vivo, human; details: mothers separated from child by emergency surgery; with coincident sucking
# Source text: The administration of TRH may also be initiated in puerperally lactating mothers who have to undergo emergency surgery such as polycystectomy, apendectomy, or the repair of fractures. Such surgery usually takes the mother away from the child for periods of time up to 14 days and a mother who is desirous of breastfeeding may find great difficulty in reestablishing lactation when she returns home from the hospital. In such cases, the administration of TRH has been associated with the reestablishment of lactation within 48 hours. It is to be emphasized that such lactation cannot be firmly established without coincident sucking of the nipple by the child.
# postpartum women = assay: Low-dose TRH in postpartum women: prolactin versus thyrotropin response; assay type: in vivo, human
# [7] = 20 mg dosage capsules three times a day, oral; cited from earlier work
# [8] = 5 mg TRH every 12 h for 5 days, four women
# [9] = 20 mg twice daily, Day 1 (before initial ingestion)
structure (smiles),measurement,setting,value
"NC(=O)[C@@H]1CCCN1C(=O)[C@H](Cc1cnc[nH]1)NC(=O)[C@@H]1CCC(=O)N1 [TRH, thyrotropin releasing hormone]",mean maximal PRL increment,"[1]; at 60 min, six nursing mothers",46.3 ng/mL
same,peripheral PRL throughout the sampling period,[1]; sampling to 180 min,remained elevated
same,weekly 1500 h maternal PRL concentration,"[2]; 5 mg TRH twice daily for 30 days, full nursing",not associated with any significant change
same,milk composition (percent of fat and protein concentration),"[2]; TRH versus control group, full nursing",did not differ significantly
same,bleeding patterns (postovulatory vaginal bleeding),"[2]; beyond the 14th postpartum week, TRH-treated versus placebo-treated mothers",no difference
same,T4 values,[2]; in vivo,normal
same,gonadotropin levels,"[2]; measured weekly, TRH versus controls",identical in controls
same,infant plasma growth hormone,[3],32.2 ± 4.9 ng/mL
same,infant plasma prolactin,[3],200.3 ± 19.2 ng/mL
same,increase in the PRL concentration,[4]; [8],50%
same,milk production and letdown,[4]; [8],increased
same,"% Milk fat, Mean ± SE",[4]; [9],2.99±0.4%
same,"% Milk protein, Mean ± SE",[4]; [9],1.81±0.2%
same,"Plasma PRL, Mean ± SE","[4]; 20 mg twice daily, Day 1 (before initial ingestion), nine women",27.8 ± 5.3 ng/mL
same,"% Milk fat, Mean ± SE","[4]; 20 mg twice daily, Day 2, NS",3.88±0.6%
same,"% Milk protein, Mean ± SE","[4]; 20 mg twice daily, Day 2, NS",1.63±0.2%
same,"Plasma PRL, Mean ± SE","[4]; 20 mg twice daily, Day 2, P .0005 vs day 1",53.1 ± 8.7 ng/mL
same,"% Milk fat, Mean ± SE","[4]; 20 mg twice daily, Day 3, NS",3.21± 0.4%
same,"% Milk protein, Mean ± SE","[4]; 20 mg twice daily, Day 3, NS",1.61± 0.1%
same,"Plasma PRL, Mean ± SE","[4]; 20 mg twice daily, Day 3, P .005 vs day 1",73.3 ± 12.4 ng/mL
same,"% Milk fat, Mean ± SE","[4]; 20 mg twice daily, Day 4, NS",3.79±0.4%
same,"% Milk protein, Mean ± SE","[4]; 20 mg twice daily, Day 4, NS",1.62±0.1%
same,"Plasma PRL, Mean ± SE","[4]; 20 mg twice daily, Day 4, NS vs day 1",44.1 ± 7.0 ng/mL
same,"% Milk fat, Mean ± SE","[4]; 20 mg twice daily, Day 5, NS",3.02±0.2%
same,"% Milk protein, Mean ± SE","[4]; 20 mg twice daily, Day 5, NS",1.60±0.1%
same,"Plasma PRL, Mean ± SE","[4]; 20 mg twice daily, Day 5, NS vs day 1",54.8 ± 13.9 ng/mL
same,"mean percent fat composition of milk, greater than pretreatment","[4]; 20 mg twice daily, day two of treatment, difference not significant",~1%
same,percent of lactose concentration in milk,[4]; milk samples obtained from all studies,remained constant
same,return to full nursing,[4]; partially nursing women after TRH ingestion,all were able to return to full nursing
same,breast engorgement and milk letdown,[4]; reported by each woman as a result of TRH ingestion,subjective and objective increases
same,reevaluation after discontinuation,[5],no clinical or laboratory evidence of hyperthyroidism
same,time to induction of milk production following the withdrawal of the estrogen,"surrogate mothers; conjugated estrogens equine 5 to 10 mg twice a day 14 days, oral TRH 5-10 mg twice a day from 7th day, nipple stimulation",≤ 72 h
same,basal plasma prolactin concentration,"surrogate mothers; conjugated estrogens equine then oral TRH 5-10 mg twice a day, surrogate mothers",increase
same,time to reestablishment of lactation,[6],≤ 48 h
same,"dose for maximum prolactin response, times lower than dose for threshold thyrotropin secretion",postpartum women,5 to 10 times
same,instances in which peripheral prolactin concentration is elevated,postpartum women; TRH in low doses,95%
same,effect on the yield or composition of milk,[7],no significant effect
